Consider 18 compounds from patent US10344025B2, “GLS1 inhibitors for treating disease” (Board of Regents, The University of Texas System, priority 2014, dated 2019).

One experiment relates to A549 cells. The experiment in a line: Proliferation Assay (A549 viability, Cell Titer Fluor, 72 hours). It is filed as cell-based. To be noted: Homo sapiens, A549, 72 h. The essentials: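 A549 cells seeded at 1000 cells/well, rested 24 h, then exposed to compound in 0.5% DMSO for 72 h at 37 °C. Viability read by Cell Titer Fluor fluorescence; IC50 from four-parameter logistic fit.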

Experiment [1] deals with purified recombinant human GAC (GLS1) (Homo sapiens (Human), UniProt O94925). The experiment in a line: GLS1 Enzymatic Activity Assay (dual-coupled enzymatic assay, resorufin/Amplex UltraRed readout).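 Also: glutamate from GAC coupled via glutamate oxidase and peroxidase to resorufin, read as fluorescence (ex 530, em 590 nm) kinetically or at 20 min, four-parameter logistic IC50 fit.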 The experiment is classed as biochemical.
Sequence of purified recombinant human GAC (GLS1) (O94925 other isoform, or with tags, fused parts or gaps): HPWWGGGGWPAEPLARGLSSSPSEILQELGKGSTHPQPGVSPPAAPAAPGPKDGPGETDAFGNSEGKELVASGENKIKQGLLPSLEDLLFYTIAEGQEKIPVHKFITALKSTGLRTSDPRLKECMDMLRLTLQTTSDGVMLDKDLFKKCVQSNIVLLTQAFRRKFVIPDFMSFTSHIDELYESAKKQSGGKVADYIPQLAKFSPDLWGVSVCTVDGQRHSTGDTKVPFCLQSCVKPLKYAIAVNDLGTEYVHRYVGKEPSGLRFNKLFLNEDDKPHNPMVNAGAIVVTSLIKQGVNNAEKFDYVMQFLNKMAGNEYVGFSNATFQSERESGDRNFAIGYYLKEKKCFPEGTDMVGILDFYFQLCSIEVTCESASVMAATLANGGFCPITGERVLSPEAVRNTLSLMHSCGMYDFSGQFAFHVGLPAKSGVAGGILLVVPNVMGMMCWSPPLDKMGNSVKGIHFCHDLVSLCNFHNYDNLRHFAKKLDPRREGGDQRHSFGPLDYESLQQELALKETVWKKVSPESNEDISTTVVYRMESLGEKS

Some results are limits rather than exact numbers.

What is called EC50 is the concentration giving half of the maximal effect. The low end stands for an effect from little substance, the high end for a need for much substance. One may read the IC50 as the concentration that inhibits the measured activity by half. With `COc1cccc(CNC(=O)c2cn(CC(F)CCc3nnc(NC(=O)Cc4cc(OC(F)(F)F)ccc4F)s3)nn2)n1` (stereo not drawn) [Example 206, 1-(2-fluoro-4-(5-(2-(2-fluoro-5-(trifluoromethoxy)phenyl)acetamido)-1,3,4-thiadiazol-2-yl)butyl)-N-((6-methoxypyridin-2-yl)methyl)-1H-1,2,3-triazole-4-carboxamide], in the experiment with A549 cells, the EC50 was < 100 nM. For the same compound, in experiment [1], the IC50 is < 100 nM.

Take `CNC(=O)c1cn(CCCCc2ccc(NC(=O)Cc3cc(-c4ccccc4OC(F)(F)F)ccn3)nn2)nn1` [Example 207, N-methyl-1-(4-(6-(2-(4-(2-(trifluoromethoxy)phenyl)pyridin-2-yl)acetamido)pyridazin-3-yl)butyl)-1H-1,2,3-triazole-4-carboxamide]: the EC50 with A549 cells is < 100 nM. In experiment [1], the IC50 was < 100 nM.

For the compound `CNC(=O)c1cn(CCCCc2ccc(NC(=O)Cc3cc(C4CCOCC4)ccn3)nn2)nn1` [Example 208, N-methyl-1-(4-(6-(2-(4-(tetrahydro-2H-pyran-4-yl)pyridin-2-yl)acetamido)pyridazin-3-yl)butyl)-1H-1,2,3-triazole-4-carboxamide], the EC50 in the experiment on A549 cells fell in the range of 100 to 500 nM. The IC50 in experiment [1] was < 100 nM.

In the experiment on A549 cells, `CNC(=O)c1cn(CC(F)CCc2nnc(C(=O)NCc3cccc(N4CCCCC4)c3)s2)nn1` (stereo not drawn) [Example 209, 5-(3-fluoro-4-(4-(methylcarbamoyl)-1H-1,2,3-triazol-1-yl)butyl)-N-(3-(piperidin-1-yl)benzyl)-1,3,4-thiadiazole-2-carboxamide] registered an EC50 of 100 to 500 nM. Besides, the IC50 in experiment [1] is 100 to 500 nM.

In the case of `O=C(Cc1ccccn1)Nc1ccc(CCC(F)Cn2cc(C(=O)NCc3cc(C(F)(F)F)ccn3)nn2)nn1` (stereo not drawn) [Example 211, 1-(2-fluoro-4-(6-(2-(pyridin-2-yl)acetamido)pyridazin-3-yl)butyl)-N-((4-(trifluoromethyl)pyridin-2-yl)methyl)-1H-1,2,3-triazole-4-carboxamide], the EC50 in the experiment with A549 cells was < 100 nM. Further, the IC50 in experiment [1] was < 100 nM.

As for `CNC(=O)c1cn(CCCCc2ccc(NC(=O)Cc3cccc(C4=CCN(C(=O)OC(C)(C)C)CC4)c3)nn2)nn1` [Example 212, tert-butyl 4-(3-(2-((6-(4-(4-(methylcarbamoyl)-1H-1,2,3-triazol-1-yl)butyl)pyridazin-3-yl)amino)-2-oxoethyl)phenyl)-3,6-dihydropyridine-1(2H)-carboxylate], the concentration for a half-maximal effect (EC50) in the experiment with A549 cells was < 100 nM. In addition, the 50% inhibitory concentration (IC50) in experiment [1] was < 100 nM.

For the compound `CNC(=O)c1cn(CCCCc2ccc(NC(=O)Cc3cccc(C4CCN(C(=O)OC(C)(C)C)CC4)c3)nn2)nn1` [Example 213, tert-butyl 4-(3-(2-((6-(4-(4-(methylcarbamoyl)-1H-1,2,3-triazol-1-yl)butyl)pyridazin-3-yl)amino)-2-oxoethyl)phenyl)piperidine-1-carboxylate], the EC50 in the experiment on A549 cells was < 100 nM. Further, the IC50 in experiment [1] is < 100 nM.

As to `CNC(=O)c1cn(CCCCc2ccc(NC(=O)CN3CCCCC3=O)nn2)nn1` [Example 214, N-methyl-1-(4-(6-(2-(2-oxopiperidin-1-yl)acetamido)pyridazin-3-yl)butyl)-1H-1,2,3-triazole-4-carboxamide], in the experiment with A549 cells, the EC50 is > 5000 nM. In addition, in experiment [1], the IC50 is 100 to 500 nM.

In turn, `CNC(=O)c1cn(CCCCc2ccc(NC(=O)CN3CCC(c4ccccc4)CC3)nn2)nn1` [Example 215, N-methyl-1-(4-(6-(2-(4-phenylpiperidin-1-yl)acetamido)pyridazin-3-yl)butyl)-1H-1,2,3-triazole-4-carboxamide] gave an EC50 in the experiment on A549 cells of 500 to 5000 nM. Besides, the IC50 in experiment [1] lay within 100 to 500 nM.

Turning to `CNC(=O)c1nnc(CCCCc2ccc(NC(=O)Cc3cncc(-c4cccc(OC(F)(F)F)c4)c3)nn2)s1` [Example 216, N-methyl-5-(4-(6-(2-(5-(3-(trifluoromethoxy)phenyl)pyridin-3-yl)acetamido)pyridazin-3-yl)butyl)-1,3,4-thiadiazole-2-carboxamide], the EC50 in the experiment on A549 cells was < 100 nM. Besides, in experiment [1], the IC50 is < 100 nM.

As for `CNC(=O)c1cn(CCCCc2ccc(NC(=O)Cc3cccc(C4CCOCC4)c3)nn2)nn1` [Example 217, N-methyl-1-(4-(6-(2-(3-(tetrahydro-2H-pyran-4-yl)phenyl)acetamido)pyridazin-3-yl)butyl)-1H-1,2,3-triazole-4-carboxamide], the EC50 in the experiment on A549 cells lay within 100 to 500 nM. Besides, in experiment [1], the IC50 is < 100 nM.

Turning to `O=C(Cc1cc(OC(F)(F)F)ccc1F)Nc1nnc(CCC(F)Cn2cc(C(=O)NCc3cccnc3)nn2)s1` (stereo not drawn) [Example 218, 1-(2-fluoro-4-(5-(2-(2-fluoro-5-(trifluoromethoxy)phenyl)acetamido)-1,3,4-thiadiazol-2-yl)butyl)-N-(pyridin-3-ylmethyl)-1H-1,2,3-triazole-4-carboxamide], the EC50 in the experiment on A549 cells is < 100 nM. In experiment [1], the IC50 was < 100 nM.

Consider `COc1ccc(CNC(=O)c2cn(CC(F)CCc3nnc(NC(=O)Cc4cc(OC(F)(F)F)ccc4F)s3)nn2)cn1` (stereo not drawn) [Example 219, 1-(2-fluoro-4-(5-(2-(2-fluoro-5-(trifluoromethoxy)phenyl)acetamido)-1,3,4-thiadiazol-2-yl)butyl)-N-((6-methoxypyridin-3-yl)methyl)-1H-1,2,3-triazole-4-carboxamide], for which, in the experiment on A549 cells, the EC50 was < 100 nM. Also, the IC50 in experiment [1] was < 100 nM.

For the compound `COc1ncccc1CNC(=O)c1cn(CC(F)CCc2nnc(NC(=O)Cc3cc(OC(F)(F)F)ccc3F)s2)nn1` (stereo not drawn) [Example 223, 1-(2-fluoro-4-(5-(2-(2-fluoro-5-(trifluoromethoxy)phenyl)acetamido)-1,3,4-thiadiazol-2-yl)butyl)-N-((2-methoxypyridin-3-yl)methyl)-1H-1,2,3-triazole-4-carboxamide], the EC50 in the experiment on A549 cells is < 100 nM. The IC50 in experiment [1] is < 100 nM.

Regarding `COC(=O)Nc1ccc(CCCCn2cc(C(=O)NCc3cc(C(F)(F)F)ccn3)nn2)nn1` [Example 224, methyl (6-(4-(4-(((4-(trifluoromethyl)pyridin-2-yl)methyl)carbamoyl)-1H-1,2,3-triazol-1-yl)butyl)pyridazin-3-yl)carbamate], in the experiment with A549 cells, the EC50 fell in the range of 100 to 500 nM. For the same compound, the IC50 in experiment [1] lay within 100 to 500 nM.

Regarding `CNC(=O)c1cn(CC(F)CCc2nnc(NC(=O)Cc3cc(C(F)(F)F)ccn3)s2)nn1` (stereo not drawn) [Example 226, 1-(2-fluoro-4-(5-(2-(4-(trifluoromethyl)pyridin-2-yl)acetamido)-1,3,4-thiadiazol-2-yl)butyl)-N-methyl-1H-1,2,3-triazole-4-carboxamide], the EC50 in the experiment on A549 cells is < 100 nM. In experiment [1], the IC50 was < 100 nM.

Regarding `CNC(=O)c1cn(CCCCc2ccc(NC(=O)CN3CCN(c4cccc(OC(F)(F)F)c4)CC3=O)nn2)nn1` [Example 227, N-methyl-1-(4-(6-(2-(2-oxo-4-(3-(trifluoromethoxy)phenyl)piperazin-1-yl)acetamido)pyridazin-3-yl)butyl)-1H-1,2,3-triazole-4-carboxamide], the EC50 in the experiment with A549 cells was < 100 nM. Further, in experiment [1], the IC50 was < 100 nM.

Regarding `CNC(=O)c1cn(CCCCc2ccc(NC(=O)CN3CCN(c4cccc(OC(F)(F)F)c4)CC3)nn2)nn1` [Example 228, N-methyl-1-(4-(6-(2-(4-(3-(trifluoromethoxy)phenyl)piperazin-1-yl)acetamido)pyridazin-3-yl)butyl)-1H-1,2,3-triazole-4-carboxamide], the EC50 in the experiment with A549 cells was < 100 nM. Also, the IC50 in experiment [1] was < 100 nM.
